This test has as its system human LAD2 cells. The format is cell-based. The method, then:
LAD2 cells (20000 cells/well, 96-well plates and 10,000 cells/well in 384-well plates) were incubated with compounds for 30 min. The R-hexosaminidase released into the supernatants and in cell lysates was quantified using the fluorogenic substrate 4-methylumbelliferyl-N-acetyl-b-D-glucosaminide.
On the day of the assay, the lyophilized peptides were dissolved in DMSO and/or PBS 1× pH 7.4, to obtain stock solutions. The stock solutions were used to prepare working serial dilutions to have final concentrations in assay ranging from 50, 100 or 300 to 0.1 or 0.001 μM. Each peptide was tested in biological duplicates. When compounds were dissolved in DMSO, the final solvent concentration in assay was 0.5% (v/v).
The percentage of degranulation, expressed as % of R-hexosaminidase release, was calculated by dividing the fluorescence signal of the supernatant by the sum of the signals from the supernatant and cell pellet (lysed with Triton X-100, final 1%) and multiplying by 100.
Dose-response curves were generated by plotting the % of R-hexosaminidase release versus total release of cells treated with triton (y-axis) against the concentrations of peptides tested (x-axis). The Mast Cell Degranulation (MCD) EC50 values and standard errors were calculated using XLfit 5.5.0.5 based on the following equation:
4 Parameter Sigmoidal Model: f=(A+((B−A)/(1+((C/x)^D))))
where A=Emin, B=Emax, C=EC50 and D=slope

*1 amine or outer side, *2 acyl side, *3 side chain or, on linkers, in order; H or OH if unused. Where a SMILES comes first, the peptide text is derived from it. Side-chain parts run from the residue outwards. [ ]: non-standard residue; d: D form. The star is where a group is joined. C16 diacid = O=C(O)CCCCCCCCCCCCCCC(=O)*; γGlu = O=C(O)[C@H](CCC(=O)[*:2])N[*:1]; Aib = CC(C)(N)C(=O)O

By EC50 is commonly meant the midpoint of the concentration-response curve. Higher therefore signals a less potent agent. In turn, `CC[C@H](C)[C@H](NC(C)=O)C(=O)N[C@H](C(=O)N[C@@H](CC(C)C)C(=O)N[C@@H](CO)C(=O)N[C@@H](CC(C)C)C(=O)N[C@@H](CC(=O)O)C(=O)N[C@@H](C(=O)N1CCC[C@H]1C(=O)N[C@H](C(=O)N[C@@H](CCCCN)C(=O)N[C@@H](CC(C)C)C(=O)N[C@@H](CCCCNC(=O)CC[C@H](NC(=O)CCCCCCCCCCCCCCC(=O)O)C(=O)O)C(=O)N[C@@H](CCCCN)C(=O)N[C@H](C(=O)N[C@@H](CC(C)C)C(=O)N[C@@H](CC(C)C)C(=O)N[C@@H](CCC(=O)O)C(=O)N[C@@H](CCC(N)=O)C(=O)N[C@@H](CCC(=O)O)C(=O)N[C@@H](CCCCN)C(=O)N[C@@H](CCC(N)=O)C(=O)N[C@@H](CCCCN)C(=O)N[C@@H](C)C(=O)N[C@@H](CCC(N)=O)C(=O)N[C@@H](CCCNC(=N)N)C(=O)N[C@@H](CCC(=O)O)C(=O)N[C@@H](CCC(N)=O)C(=O)N[C@@H](C)C(=O)N[C@@H](CCC(=O)O)C(=O)N[C@H](C(=O)N[C@@H](CC(N)=O)C(=O)NC(C)(C)C(=O)N[C@@H](CCC(N)=O)C(=O)N[C@H](C(=O)N[C@@H](CC(C)C)C(=O)N[C@@H](C)C(=O)N[C@@H](CCC(N)=O)C(=O)N[C@H](C(N)=O)C(C)C)[C@@H](C)CC)[C@@H](C)O)[C@@H](C)CC)[C@@H](C)CC)C(C)C)C(C)C` [Cmpd 161] (Ac-IVLSLD[dV]PIKLK([γGlu-C16 diacid])KILLEQEKQKAQREQAETN[Aib]QILAQV-NH2) gave an EC50 of over 50 µM.

In turn, `CC[C@H](C)[C@H](NC(C)=O)C(=O)N[C@H](C(=O)N[C@@H](CC(C)C)C(=O)N[C@@H](CO)C(=O)N[C@@H](CC(C)C)C(=O)N[C@@H](CC(=O)O)C(=O)N[C@@H](C(=O)N1CCC[C@H]1C(=O)N[C@H](C(=O)N[C@@H](CCCCN)C(=O)N[C@@H](CC(C)C)C(=O)N[C@@H](CCCCNC(=O)CC[C@H](NC(=O)CCCCCCCCCCCCCCC(=O)O)C(=O)O)C(=O)N[C@@H](CCCCN)C(=O)N[C@H](C(=O)N[C@@H](CC(C)C)C(=O)N[C@@H](CC(C)C)C(=O)N[C@@H](CCC(=O)O)C(=O)N[C@@H](CCC(N)=O)C(=O)N[C@@H](CCC(=O)O)C(=O)N[C@@H](CCCCN)C(=O)N[C@@H](CCC(N)=O)C(=O)N[C@@H](CCCCN)C(=O)NC(C)(C)C(=O)N[C@@H](CCC(N)=O)C(=O)N[C@@H](CCCNC(=N)N)C(=O)N[C@@H](CCC(=O)O)C(=O)N[C@@H](CCC(N)=O)C(=O)N[C@@H](C)C(=O)N[C@@H](CCC(=O)O)C(=O)N[C@H](C(=O)N[C@@H](CC(N)=O)C(=O)NC(C)(C)C(=O)N[C@@H](CCC(N)=O)C(=O)N[C@H](C(=O)N[C@@H](CC(C)C)C(=O)N[C@@H](C)C(=O)N[C@@H](CCC(N)=O)C(=O)N[C@H](C(N)=O)C(C)C)[C@@H](C)CC)[C@@H](C)O)[C@@H](C)CC)[C@@H](C)CC)C(C)C)C(C)C` [Cmpd 162] (Ac-IVLSLD[dV]PIKLK([γGlu-C16 diacid])KILLEQEKQK[Aib]QREQAETN[Aib]QILAQV-NH2) showed an EC50 of over 50 µM.

`CC[C@H](C)[C@H](NC(C)=O)C(=O)N[C@H](C(=O)N[C@@H](CC(C)C)C(=O)N[C@@H](CO)C(=O)N[C@@H](CC(C)C)C(=O)N[C@@H](CC(=O)O)C(=O)N[C@@H](C(=O)N1CCC[C@H]1C(=O)N[C@H](C(=O)N[C@@H](C)C(=O)N[C@@H](CC(C)C)C(=O)N[C@@H](CCCCNC(=O)CC[C@H](NC(=O)CCCCCCCCCCCCCCC(=O)O)C(=O)O)C(=O)N[C@@H](CCCCN)C(=O)N[C@H](C(=O)N[C@@H](CC(C)C)C(=O)N[C@@H](CC(C)C)C(=O)N[C@@H](CCC(=O)O)C(=O)N[C@@H](CCC(N)=O)C(=O)N[C@@H](CCC(=O)O)C(=O)N[C@@H](CCCCN)C(=O)N[C@@H](CCC(N)=O)C(=O)N[C@@H](CCCCN)C(=O)N[C@@H](CCCCN)C(=O)N[C@@H](CCC(N)=O)C(=O)N[C@@H](CCCNC(=N)N)C(=O)N[C@@H](CCC(=O)O)C(=O)N[C@@H](CCC(N)=O)C(=O)N[C@@H](C)C(=O)N[C@@H](CCC(=O)O)C(=O)N[C@H](C(=O)N[C@@H](CC(N)=O)C(=O)NC(C)(C)C(=O)N[C@@H](CCC(N)=O)C(=O)N[C@H](C(=O)N[C@@H](CC(C)C)C(=O)N[C@@H](C)C(=O)N[C@@H](CCC(N)=O)C(=O)N[C@H](C(N)=O)C(C)C)[C@@H](C)CC)[C@@H](C)O)[C@@H](C)CC)[C@@H](C)CC)C(C)C)C(C)C` [Cmpd 163] (Ac-IVLSLD[dV]PIALK([γGlu-C16 diacid])KILLEQEKQKKQREQAETN[Aib]QILAQV-NH2) yielded a concentration for a half-maximal effect (EC50) of over 100 µM.

Turning to `CC[C@H](C)[C@H](NC(C)=O)C(=O)N[C@H](C(=O)N[C@@H](CC(C)C)C(=O)N[C@@H](CO)C(=O)N[C@@H](CC(C)C)C(=O)N[C@@H](CC(=O)O)C(=O)N[C@@H](C(=O)N1CCC[C@H]1C(=O)N[C@H](C(=O)N[C@@H](CCCCN)C(=O)N[C@@H](CC(C)C)C(=O)N[C@@H](CCCCNC(=O)CC[C@H](NC(=O)CCCCCCCCCCCCCCC(=O)O)C(=O)O)C(=O)N[C@@H](CCCCN)C(=O)N[C@H](C(=O)N[C@@H](CC(C)C)C(=O)N[C@@H](CC(C)C)C(=O)N[C@@H](CCC(=O)O)C(=O)N[C@@H](CCC(N)=O)C(=O)N[C@@H](CCC(=O)O)C(=O)N[C@@H](C)C(=O)N[C@@H](CCC(N)=O)C(=O)N[C@@H](CCCCN)C(=O)N[C@@H](CCCCN)C(=O)N[C@@H](CCC(N)=O)C(=O)N[C@@H](CCCNC(=N)N)C(=O)N[C@@H](CCC(=O)O)C(=O)N[C@@H](CCC(N)=O)C(=O)N[C@@H](C)C(=O)N[C@@H](CCC(=O)O)C(=O)N[C@H](C(=O)N[C@@H](CC(N)=O)C(=O)NC(C)(C)C(=O)N[C@@H](CCC(N)=O)C(=O)N[C@H](C(=O)N[C@@H](CC(C)C)C(=O)N[C@@H](C)C(=O)N[C@@H](CCC(N)=O)C(=O)N[C@H](C(N)=O)C(C)C)[C@@H](C)CC)[C@@H](C)O)[C@@H](C)CC)[C@@H](C)CC)C(C)C)C(C)C` [Cmpd 165] (Ac-IVLSLD[dV]PIKLK([γGlu-C16 diacid])KILLEQEAQKKQREQAETN[Aib]QILAQV-NH2), the EC50 was over 100 µM.

In the case of `CC[C@H](C)[C@H](NC(C)=O)C(=O)N[C@H](C(=O)N[C@@H](CC(C)C)C(=O)N[C@@H](CO)C(=O)N[C@@H](CC(C)C)C(=O)N[C@@H](CC(=O)O)C(=O)N[C@@H](C(=O)N1CCC[C@H]1C(=O)N[C@H](C(=O)N[C@@H](CCCCN)C(=O)N[C@@H](CC(C)C)C(=O)N[C@@H](CCCCNC(=O)CC[C@H](NC(=O)CCCCCCCCCCCCCCC(=O)O)C(=O)O)C(=O)N[C@@H](CCCCN)C(=O)N[C@H](C(=O)N[C@@H](CC(C)C)C(=O)N[C@@H](CC(C)C)C(=O)N[C@@H](CCC(=O)O)C(=O)N[C@@H](CCC(N)=O)C(=O)N[C@@H](CCC(=O)O)C(=O)N[C@@H](CCCCN)C(=O)N[C@@H](CCC(N)=O)C(=O)N[C@@H](C)C(=O)N[C@@H](CCCCN)C(=O)N[C@@H](CCC(N)=O)C(=O)N[C@@H](CCCNC(=N)N)C(=O)N[C@@H](CCC(=O)O)C(=O)N[C@@H](CCC(N)=O)C(=O)N[C@@H](C)C(=O)N[C@@H](CCC(=O)O)C(=O)N[C@H](C(=O)N[C@@H](CC(N)=O)C(=O)NC(C)(C)C(=O)N[C@@H](CCC(N)=O)C(=O)N[C@H](C(=O)N[C@@H](CC(C)C)C(=O)N[C@@H](C)C(=O)N[C@@H](CCC(N)=O)C(=O)N[C@H](C(N)=O)C(C)C)[C@@H](C)CC)[C@@H](C)O)[C@@H](C)CC)[C@@H](C)CC)C(C)C)C(C)C` [Cmpd 166] (Ac-IVLSLD[dV]PIKLK([γGlu-C16 diacid])KILLEQEKQAKQREQAETN[Aib]QILAQV-NH2), the EC50 was over 100 µM.

With `CC[C@H](C)[C@H](NC(C)=O)C(=O)N[C@H](C(=O)N[C@@H](CC(C)C)C(=O)N[C@@H](CO)C(=O)N[C@@H](CC(C)C)C(=O)N[C@@H](CC(=O)O)C(=O)N[C@@H](C(=O)N1CCC[C@H]1C(=O)N[C@H](C(=O)N[C@@H](CCCCN)C(=O)N[C@@H](CC(C)C)C(=O)N[C@@H](CCCCNC(=O)CC[C@H](NC(=O)CCCCCCCCCCCCCCC(=O)O)C(=O)O)C(=O)N[C@@H](CCCCN)C(=O)N[C@H](C(=O)N[C@@H](CC(C)C)C(=O)N[C@@H](CC(C)C)C(=O)N[C@@H](CCC(=O)O)C(=O)N[C@@H](CCC(N)=O)C(=O)N[C@@H](CCC(=O)O)C(=O)N[C@@H](CCCCN)C(=O)N[C@@H](CCC(N)=O)C(=O)N[C@@H](CCCCN)C(=O)N[C@@H](CCCCN)C(=O)N[C@@H](CCC(N)=O)C(=O)N[C@@H](C)C(=O)N[C@@H](CCC(=O)O)C(=O)N[C@@H](CCC(N)=O)C(=O)N[C@@H](C)C(=O)N[C@@H](CCC(=O)O)C(=O)N[C@H](C(=O)N[C@@H](CC(N)=O)C(=O)NC(C)(C)C(=O)N[C@@H](CCC(N)=O)C(=O)N[C@H](C(=O)N[C@@H](CC(C)C)C(=O)N[C@@H](C)C(=O)N[C@@H](CCC(N)=O)C(=O)N[C@H](C(N)=O)C(C)C)[C@@H](C)CC)[C@@H](C)O)[C@@H](C)CC)[C@@H](C)CC)C(C)C)C(C)C` [Cmpd 167] (Ac-IVLSLD[dV]PIKLK([γGlu-C16 diacid])KILLEQEKQKKQAEQAETN[Aib]QILAQV-NH2), the EC50 was over 50 µM.

Source of the values: patent US20260001928A1 (CORTERIA PHARMACEUTICALS, priority 2022, published 2026).
